One data set relates to mPTP. In words: mPTP activity assay in isolated rat brain mitochondria. It is filed as biochemical. The following applies: for mPTP Rat brain pIC50: isolated rat brain mitochondria. As to the method:
MPTP activity was measured in brain mitochondria freshly isolated from female Sprague Dawley (250 to 300 gram) rats. Anaesthetised rats were perfused in-situ with ˜40 ml cold Dulbecco's Phosphate Buffered Saline (DPBS), then brains dissected and transferred into 30 ml Isolation Buffer (225 mM mannitol, 75 mM sucrose, 1 mM EGTA, adjusted to pH 7.4 with 1 M NaOH). The brain was minced using tweezers and a scalpel into ˜5 mm pieces then transferred into a 50 ml Potterton Dounce homogenization tube on ice containing 10 ml ice-cold isolation buffer (as above with addition of Complete Protease inhibitor; 1 tablet per 50 ml buffer). Homogenisation was carried out using a teflon pestle at 1800 rpm. The slurry was centrifuged at 2000 g for 10 min at 4° C., then the supernatant centrifuged at 12,000 g for 9 min. The pellet was resuspended with a dounce homogeniser in isolation buffer as above but with the addition of 0.02% digitonin, centrifuged at 12,000 g for 11 min and finally resuspended in 5 ml modified isolation buffer (as above but with EGTA reduced to 0.1 mM).
Test compounds were prepared in 384 well polypropylene assay plates as described above for the liver mitochondria assay. A stock mitochondria/Fluo5N assay solution was prepared in 5.6 ml assay buffer (120 mM mannitol, 40 mM MOPS, 5 mM KH2PO4, 60 mM KCl, 10 mM pyruvate, 2 mM malate, 2 mM MgCl2, 20 μM ADP, 1.26 μM oligomycin A, adjusted to pH 7.4) supplemented with Fluo5N pentapotassium salt (2 μM) and 1 ml mitochondria suspension, then transferred (15 μl) into the assay plate containing test compounds and incubated for 10 min at RT. Assay plates were then transferred to a FLIPR Tetra plate reader (Molecular Devices). Dye fluorescence was then measured every 3 sec for a total of 10 min. After 12 sec, a 2.5 μl bolus of Ca2+(75 μM) was added from a source plate containing 675 μM CaCl2 in FLIPR assay buffer. IC50 values for test compounds were calculated using the fluorescence value collected at the 10 min timepoint with % inhibition calculated using the DMSO control and cyclosporin A values at […].

The nature of the next data set: PBS solubility. In kind it is physicochemical. As to conditions: aqueous buffer, kinetic from dmso stock; PBS pH 7.4, 2 hr at 25° C. Summed up: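 Compound from 10 mM DMSO stock was added in duplicate to FaSSIF or PBS (pH 7.4) and shaken at 1100 rpm for 2 hr at 25 °C. After filtration, the filtrate was quantified by LC-MS/MS with internal standard against a standard of known concentration.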

A short description of the next data set: FaSSIF solubility. In kind it is physicochemical. As to conditions: kinetic from dmso stock, Fasted state simulated intestinal fluid, 2 hr at 25° C. As to the method: Test compounds were prepared as 10 mM stocks in DMSO and 15 μl samples transferred in duplicate into 1.5 mL glass flat bottom vials (BioTech Solutions). Fasted state simulated intestinal fluid (FaSSIF) or PBS (pH 7.4) was added to each vial to final volume of 500 μl. One PTFE encapsulated stir stick (V&P Scientific) was placed in each vial before sealing with PTFE/SIL plugs (BioTech Solutions). Vials were shaken at 1100 rpm for 2 hr at 25° C. Samples were then filtered through MultiScreen Solvinert filter plates (Millipore) via vacuum filtration. Aliquots of filtrate (5 μl) plus 5 μl DMSO were diluted in 490 μl 50% acetonitrile in water containing internal standard. The filtrate was analysed and quantified against a standard of known concentration using LC-MS/MS. Solubility values of the test compound and control compound were calculated as follows: [Sample]=(Area ratiosample*INJ VOL STD*DFsample*[STD])/(Area ratio STD*INJ VOLsample).

Data set [1] in a line: Hepatocyte clearance assay, rat. In kind it is in vitro ADME. The following applies: cryopreserved primary rat hepatocytes, average value from two experiments, read-out: Rat heps intrinsic clearance (CLint). Summed up:
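Cryopreserved rat or human hepatocytes at 0.5×10^6 viable cells/mL in L-15 medium, compound incubated at 37° C. with sampling to 120 min, in duplicate; parent remaining by LC/MS/MS. Half-life from ln(% remaining) vs time slope; CLint (μL/min/1×10^6 cells) = kV/N, V 0.2 mL, N 0.1×10^6 cells.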

Data set [2] can be described thus: Hepatocyte clearance assay, human. In kind it is in vitro ADME. The following applies: cryopreserved primary human hepatocytes, average value from two experiments, read-out: Human heps intrinsic clearance (CLint). The procedure:
In vitro clearance studies were performed in primary rat and human hepatocytes (BioIVT). Vials of cryopreserved rat or human hepatocytes were thawed in a 37° C. water bath for 2 min. Cells were transferred into thawing medium (Williams' Medium E containing 30% Percoll, 1× GlutaMAX-1, 15 mM HEPES, 5% fetal bovine serum (FBS), 4 μg/ml insulin, 1 μM dexamethasone), centrifuged at 100 g for 10 min then resuspended in culture medium (Leibovitz's L-15 Medium) at a concentration of 0.5×10^6 viable cells/mL (number of viable cells assessed using AO/PI staining). Hepatocytes (198 μL) were transferred into wells of a 96-well non-coated plate and placed in a 37° C. incubator for 10 min. Test compound solutions were prepared from 10 mM stocks in DMSO, diluted to 100 μM in 50% (v/v in water) acetonitrile. Test compound samples (2 μl) were added to each well of hepatocytes and incubated at 37° C. Samples (25 μl) were collected at t=0, 15, 30, […] and 120 min, mixed with 6 volumes (150 μl) of acetonitrile containing internal standard (100 nM alprazolam, 200 nM caffeine and 100 nM tolbutamide), vortexed for 5 min and centrifuged for 45 min at 3220 g. An aliquot of supernatant (100 μL) was diluted with 100 μL ultra-pure water, and the mixture was used for LC/MS/MS analysis. All incubations were performed in duplicate. Peak areas were determined from extracted ion chromatograms. The slope value, k, was determined by linear regression of the natural logarithm of the remaining percentage of the parent drug vs. incubation time curve. The in vitro half-life (in vitro t1/2) was determined from the slope value: in vitro t1/2=0.693/k. Conversion of the in vitro t1/2 (in min) into the in vitro intrinsic clearance (in vitro CLint, in μL/min/1×10^6 cells) was done using the following equation (mean of duplicate determinations): • in vitro CLint=kV/N • V=incubation volume (0.2 mL) • N=number of hepatocytes per well (0.1×10^6 cells). Microsomal Clearance Assay

≈ marks a conversion by molar mass, not a printed value. Bounds are passed on as bounds.

As usually defined, the solubility is the concentration that dissolves in the medium under given conditions. A high value points to a readily soluble substance. Turning to `O=C(/C=C/c1ccc2cn[nH]c2c1)N[C@@H]1CCc2ccccc21` [Example 3, (R,E)-N-(2,3-dihydro-1H-inden-1-yl)-3-(1H-indazol-6-yl)acrylamide], the “mPTP Rat brain pIC50” value with mPTP worked out at 7.3. The solubility at 2 h in “PBS solubility” was 2.2 µM (≈ 0.667 µg/mL); in “FaSSIF solubility” it was 7 µM (≈ 2.12 µg/mL). For the same compound, in data set [1], the hepatocyte CLint at 1 µM is 28 µL/min/1e6 cells.
`C[C@@H]1COc2ccccc2[C@@H]1NC(=O)/C=C/c1ccc2cn[nH]c2c1` (single isomer, unassigned) [Example 15d, (E)-3-(1H-indazol-6-yl)-N-(3-methylchroman-4-yl)acrylamide]: the “mPTP Rat brain pIC50” value in the data set on mPTP is 7.6. Moreover, the solubility at 2 h in “PBS solubility” was 2 µM (≈ 0.667 µg/mL); in the data set “FaSSIF solubility”, 7 µM (≈ 2.33 µg/mL). Also, in data set [2], the hepatocyte CLint at 1 µM is < 3 µL/min/1e6 cells.
As for `C[C@H]1Cc2ccccc2[C@@H]1NC(=O)/C=C/c1ccc2cn[nH]c2c1` (single isomer, unassigned) [Example 14c], the “activity in the rat brain mitochondria assay” value in the data set with mPTP (comparison among Example compounds, in words) was “highest activity”. Besides, the “mPTP Rat brain pIC50” value in the data set on mPTP worked out at 8.4. The solubility at 2 h is 0.6 µM (≈ 0.19 µg/mL) in “PBS solubility” and 8 µM (≈ 2.54 µg/mL) in the data set “FaSSIF solubility”. Further, the hepatocyte CLint at 1 µM in data set [1] stood at 48 µL/min/1e6 cells; in data set [2], 40.4 µL/min/1e6 cells.
Turning to `COCc1ccccc1NC(=O)/C=C/c1ccc2cn[nH]c2c1` [Example 29, (E)-3-(1H-indazol-6-yl)-N-(2-(methoxymethyl)phenyl)acrylamide], in the data set on mPTP, the “mPTP Rat brain pIC50” value came to 6.8. Further, the solubility at 2 h in “PBS solubility” was 29 µM (≈ 8.91 µg/mL); in “FaSSIF solubility”, 73 µM (≈ 22.4 µg/mL). The hepatocyte CLint at 1 µM in data set [1] was 10 µL/min/1e6 cells; in data set [2], < 3 µL/min/1e6 cells.

Values taken from patent US12497359B2, “Acrylamide derivatives” (NRG Therapeutics Ltd, priority 2020, dated 2025).
